Biological target: T1, PDE2A (Mus musculus, UniProt Q922S4)
T1 construct: from tissue; host or cells: living female CD-1 mice (brain, in vivo)
T1 sequence (Q922S4 1-939): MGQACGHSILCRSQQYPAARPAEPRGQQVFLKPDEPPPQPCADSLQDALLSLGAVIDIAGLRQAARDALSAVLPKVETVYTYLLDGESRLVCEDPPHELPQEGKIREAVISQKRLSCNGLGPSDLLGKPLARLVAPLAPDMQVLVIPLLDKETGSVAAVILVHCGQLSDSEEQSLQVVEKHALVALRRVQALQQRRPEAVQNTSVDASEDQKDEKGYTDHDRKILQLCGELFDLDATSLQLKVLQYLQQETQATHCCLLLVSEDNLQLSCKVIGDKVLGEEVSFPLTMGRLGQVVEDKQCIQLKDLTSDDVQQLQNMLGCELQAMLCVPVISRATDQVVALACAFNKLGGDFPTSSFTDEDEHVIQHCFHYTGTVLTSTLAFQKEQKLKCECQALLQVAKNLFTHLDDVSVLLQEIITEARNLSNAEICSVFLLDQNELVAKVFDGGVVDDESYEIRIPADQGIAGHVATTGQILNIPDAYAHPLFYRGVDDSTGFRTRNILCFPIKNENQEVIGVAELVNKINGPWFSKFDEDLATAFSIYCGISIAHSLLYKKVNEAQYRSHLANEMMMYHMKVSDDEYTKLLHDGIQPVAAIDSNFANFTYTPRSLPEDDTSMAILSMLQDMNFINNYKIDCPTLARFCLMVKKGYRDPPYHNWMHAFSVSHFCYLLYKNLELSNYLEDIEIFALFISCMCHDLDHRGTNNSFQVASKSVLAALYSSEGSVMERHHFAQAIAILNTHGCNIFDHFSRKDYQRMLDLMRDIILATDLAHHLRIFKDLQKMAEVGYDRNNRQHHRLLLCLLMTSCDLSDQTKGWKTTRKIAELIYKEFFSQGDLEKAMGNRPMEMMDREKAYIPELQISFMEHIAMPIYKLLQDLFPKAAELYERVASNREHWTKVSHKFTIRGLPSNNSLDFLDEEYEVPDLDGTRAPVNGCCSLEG
Assay: small-animal PET/MR baseline studies in mice
Assay type: in vivo
Settings: CD-1 mice, i.v. 9.7 ± 1.3 MBq, 0-55 min p.i., n = 4
Experimental: For PET/MR baseline studies of [^18F]TA3 in anaesthetized CD-1 mice, the radioligand was injected intravenously (9.7 ± 1.3 MBq, SAEOS ~70 GBq/µmol, n = 4), and whole body scans were performed for 60 min in listmode with a Mediso nanoScan PET/MR scanner followed by dynamic reconstruction. Time-activity curves (TACs) were generated for regions of interest such as whole brain, striatum, and cerebellum (Figure 8).
Female CD-1 mice (n = 4; age: 8 weeks; weight: 28.8 ± 1.2 g; supplier: Medizinisch-Experimentelles Zentrum Leipzig, Leipzig, Germany) were housed under a 12 h:12 h light-dark cycle at 26 °C in a vented animal cabinet. The animals received an injection of 9.7 ± 1.3 MBq of [^18F]TA3 into the tail vein followed by a 60 min PET/MR scan (Mediso nanoScan®, Budapest, Hungary). Each PET image was corrected for random coincidences, dead time, scatter and attenuation (AC), based on a whole body (WB) MR scan.
The reconstruction parameters for the list mode data are: 3D-ordered subset expectation maximization (OSEM), 4 iterations, 6 subsets, energy window: 400–600 keV, coincidence mode: 1–5, ring difference: 81. […]
The respective brain regions were identified using the MR information from the GRE scan. The activity data is expressed as mean standardized uptake value (SUV) of the overall ROI.

COc1ccc2nnc3c(C)nc(-c4cc(OCCC[18F])ccc4F)n3c2n1 [[^18F]TA3]
time-activity curve in cerebellum: constantly increased uptake in the cerebellum
time-activity curve in striatum: fast wash out of activity from the striatum
